Measured values as given in patent publication US11597909B2, “Method for the formation of renal tubules” (LEIBNIZ-INSTITUT FÜR POLYMER-FORSCHUNG DRESDEN E.V., priority 2016, dated 2023).

Columns and labels:
[1] = test system: tubule organoids from HK-2 cells; test: Apoptosis by caspase-3 immunocytochemistry in tubule organoids; format: cell-based, human; details: incubation with cisplatin, HK-2 tubule organoids
Excerpt: (§1) The present invention can be used as an assay for nephrotoxicity.

[2] = test system: tubule organoids from HK-2 cells; test: Expression of kidney injury biomarker KIM-1 in tubule structures; format: cell-based, human; details: incubation with cisplatin, HK-2 tubule structures
Excerpt: as §1

In the case of `N.N.[Cl][Pt][Cl]` [cisplatin], the “apoptosis (cell death), caspase-3 immunocytochemistry” value [1] is reported as “increase in apoptosis” and the “expression of kidney injury biomarker KIM 1” value [2] is reported as “expressed the injury-indicating kidney biomarker KIM 1”.
